Tests used:
[1] = Compound 1 plasma levels (pharmacokinetic samples, first cycle) in Phase I combination study; format: in vivo, human; conditions: patients, IV infusion, with carboplatin
Excerpt: Pharmacokinetic samples were taken during the first cycle.

[2] = test system: paclitaxel-sensitive (A2780, HCT116 and LS174T) and paclitaxel-resistant human colon tumors (HCT116/VM46), ovarian carcinoma (Pat-7 and A2780Tax) and breast …; test: Preclinical pharmacology studies, antitumor activity in tumor models; format: in vivo
[3] = test system: advanced solid tumors; test: Compound 1 followed by carboplatin IV every 3 weeks in patients with advanced cancer (Example 1)
Protocol: Compound 1 followed by carboplatin was given intravenously every 3 weeks to patients with advanced solid tumors treated with ≦2 prior chemotherapy regimens. Pharmacokinetics of both drugs were measured on the first course. Twenty-five (25) patients were treated at four dose levels—combining Compound 1 (30 or 40 mg/m^2) with […] or AUC 5 or 6 (Calvert formula; Calvert et al., J. Clin. Oncol., 1989, 7, 1748–1756) of carboplatin. A total of 91 courses were given.

[4] = test system: advanced cancer; test: Phase I study of Compound 1 in combination with carboplatin in patients with advanced cancer, day 1 and split day 1/8 schedules (Example 2)
Protocol: Compound 1 was assessed in Phase I studies in combination with other chemotherapeutic agents. Compound 1 was given as a 60-minute infusion, 30 minutes prior to a 30-minute carboplatin infusion on day 1 every three weeks (or 21 days). Pharmacokinetic samples were taken during the first cycle. Twenty-five (25) patients were treated on this schedule at 4 dose levels (Compound 1 doses of 30 mg/m^2 or 40 mg/m^2 with carboplatin doses of […], or AUC 5 or 6).
A further 14 patients were recruited onto an amended schedule with Compound 1 doses being split and administered on days 1 and 8 every three weeks (or 21 days) and carboplatin being administered on day 1.

C/C(=C\c1csc(C)n1)[C@@H]1C[C@@H]2O[C@]2(C)CCC[C@H](C)[C@H](O)[C@@H](C)C(=O)C(C)(C)[C@@H](O)CC(=O)N1 (relative stereo) [Compound 1, [1S-1R*,3R*(E),7R*,10S*,11R*,12R*,16S*]]-7,11-dihydroxy-8,8,10,12,16-pentamethyl-3-[1-methyl-2-(2-methyl-4-thiazolyl)ethenyl]-4-aza-17-oxabicyclo[14.1.0]heptadecane-5,9-dione]
half-life ([1]; human): ~1800 min | Cmax and AUC [1]: increase with dose | volume of distribution [1]: high | oral efficacy ([2]; oral administration, comparable to parenteral administration): orally efficacious | antitumor activity ([2]; paclitaxel-sensitive and paclitaxel-resistant tumor models): very impressive and broad spectrum of antitumor activity | confirmed partial responses ([3]; Compound 1 30 or 40 mg/m^2 + carboplatin AUC 5 or 6, IV every 3 weeks, 25 patients, breast, neuroendocrine and unknown primary carcinomas): 3/25 | patients with disease stabilization and clinical benefit from treatment ([3]; Compound 1 + carboplatin every 3 weeks, 25 patients treated): 12 patients | dose at which CTC grade 4 neutropenia was dose limiting ([3]; human, in vivo): 40 mg/m^2 | maximum tolerated dose of Compound 1 ([3]; with carboplatin AUC 5 (Calvert formula), every 3 weeks): 40 mg/m^2 | patients showing disease stabilization for more than two months ([4]; Compound 1 + carboplatin): 48% | major toxicities ([4]; Compound 1 + carboplatin, 39 patients over 7 dose levels): myelosuppression, myalgia and peripheral neuropathy | partial responses ([4]; Compound 1 + carboplatin, 39 patients, 2 breast, neuro-endocrine, unknown primary carcinomas and mesothelioma): 5 patients | dose at which DLT was observed, split schedule ([4]; Compound 1 on days 1 and 8 every three weeks with carboplatin AUC 6 on day 1): 25 mg/m^2 | dose at which dose limiting toxicity (DLT) occurred ([4]; Compound 1 day 1 every three weeks with carboplatin AUC 6, myelosuppression as major toxicity): 40 mg/m^2 | patients who withdrew from the study because of study drug toxicity ([4]; peripheral neuropathy reported in all these patients, 39 patients treated): Eleven

From patent US7008936B2, “Combination of epothilone analogs and chemotherapeutic agents for the treatment of proliferative diseases” (Bristol-Myers Squibb Company, priority 2002, dated 2006)
